Data published in the supplement of paper PMC10307832.

What was measured:
Assay in all cases: relative viability (nuclei count vs DMSO), 5 days (fraction); higher = more cells survive
Vandetanib + Linsitinib = compound: COc1cc2/c(=N/c3ccc(Br)cc3F)nc[nH]c2cc1OCC1CCN(C)CC1 [Vandetanib] + C[C@]1(O)C[C@@H](c2nc(-c3ccc4ccc(-c5ccccc5)nc4c3)c3c(N)nccn32)C1 [Linsitinib] (partner 1 µM)
Outline: (§1)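 For relative viability, nuclei counts in treated wells were divided by those in vehicle wells. Lung cancer cell lines had been pin-tool dosed in 1536-well plates the day after seeding and cultured for 5 days, then fixed and stained in one step (final 0.05% Triton X-100, 1% formaldehyde, 1 ug/ml Hoechst) and imaged at 4×. Doses were one drug alone or a fixed anchor-drug dose plus five library-drug doses (not always all listed) in √10 steps, and values are duplicate-plate medians.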

NVP-TAE684 + Palbociclib = compound: COc1cc(N2CCC(N3CCN(C)CC3)CC2)ccc1Nc1ncc(Cl)c(Nc2ccccc2S(=O)(=O)C(C)C)n1 [NVP-TAE684] + CC(=O)c1c(C)c2cnc(Nc3ccc(N4CCNCC4)cn3)nc2n(C2CCCC2)c1=O [Palbociclib] (partner 0.5 µM)
Outline: as §1

Vandetanib + Bortezomib = compound: COc1cc2/c(=N/c3ccc(Br)cc3F)nc[nH]c2cc1OCC1CCN(C)CC1 [Vandetanib] + CC(C)C[C@H](NC(=O)[C@H](Cc1ccccc1)NC(=O)c1cnccn1)B(O)O [Bortezomib] (partner 0.002 µM)
Outline: as §1

[1] = compound: C1=CC=C2C(=C1)N=C(S2)C(C#N)C3=NC(=NC=C3)NCCC4=CN=CC=C4 + Nc1nc2[nH]cc(CCc3ccc(C(=O)N[C@@H](CCC(=O)O)C(=O)O)cc3)c2c(=O)[nH]1 [Pemetrexed] (partner 0.2 µM)
Outline: as §1

Row | Cell Line | relative viability (Vandetanib + Linsitinib; first compound 0.02 µM) | relative viability (Vandetanib + Linsitinib; first compound 0.06325 µM) | relative viability (Vandetanib + Linsitinib; first compound 0.2 µM) | relative viability (Vandetanib + Linsitinib; first compound 0.6325 µM) | relative viability (Vandetanib + Linsitinib; first compound 2 µM) | relative viability (NVP-TAE684 + Palbociclib; first compound 0.2 µM) | relative viability (NVP-TAE684 + Palbociclib; first compound 0.6325 µM) | relative viability (NVP-TAE684 + Palbociclib; first compound 2 µM) | relative viability (Vandetanib + Bortezomib; first compound 0.02 µM) | relative viability (Vandetanib + Bortezomib; first compound 0.06325 µM) | relative viability (Vandetanib + Bortezomib; first compound 0.2 µM) | relative viability (Vandetanib + Bortezomib; first compound 0.6325 µM) | relative viability (Vandetanib + Bortezomib; first compound 2 µM) | relative viability ([1]; first compound 0.005 µM) | relative viability ([1]; first compound 0.01581 µM) | relative viability ([1]; first compound 0.05 µM) | relative viability ([1]; first compound 0.1581 µM) | relative viability ([1]; first compound 0.5 µM)
1 | LCLC-97TM1 | 0.197 | 0.171 | 0.171 | 0.171 | 0.136 | 0.251 | 0.249 | 0.0774 | 0.827 | 0.641 | 0.771 | 0.566 | 0.558 | 0.196 | 0.185 | 0.181 | 0.172 | 0.198
2 | NCI-H1915 | 1.06 | 1.09 | 1.08 | 1.1 | 1.13 | 0.558 | 0.525 | 0.491 | 0.947 | 0.885 | 1.07 | 0.973 | 0.943 |  | 0.506 | 0.434 | 0.563 | 0.481
3 | NCI-H358 | 0.764 | 0.708 | 0.201 | 0.501 | 0.301 | 0.125 | 0.121 | 0.0895 |  |  |  |  |  | 0.265 | 0.173 | 0.169 | 0.165 | 0.188
4 | LK-2 | 1.08 | 0.513 | 0.909 | 0.9 | 0.319 | 0.614 | 0.756 | 0.296 |  |  |  |  |  | 0.237 | 0.27 | 0.295 | 0.325 | 0.281
5 | EPLC-272H | 1.21 | 0.971 | 1.11 | 1.13 | 1.18 | 0.324 | 0.321 | 0.27 | 0.983 | 0.764 | 0.892 | 0.995 | 0.909 |  | 0.255 | 0.317 | 0.325 | 0.326
